Here are results for 2 compounds from US5322772A (Children's Research Institute, priority 1991, dated 1994).

For one assay, the system named is 50-58 kDa protein. Description: LH-20 binding assay with purified 50-58 kDa binding protein from JURKAT cytosol. Details: species or system human. Particulars: for Kd: 50-58 kDa protein from peripheral blood mononuclear leukocytes and JURKAT cytosol. As to the method:
E. The reaction mixture, typically a 100 μl aliquot run in duplicate, is poured onto a column of convenient dimension, such as 0.8×7.0 cm of a molecular sieve matrix such as LH-20 Sephadex (Pharmacia Fine Chemicals, Piscataway, N.J.).
The S-100 fraction was further filtered (0.45 μm pore size membrane, Gelman Sciences), the filtrate (2.9 mg protein) passed through a 600×7.5 nun Bio-Sil-125 HPLC exclusion column at a flow rate of 1.0 ml/minute in 10 mM phosphate buffer, pH 6.8; protein elution was monitored at 280 nm. Fractions (1 ml) were collected and analyzed for binding of ^3 H-dihydro FK-506 using the previously described LH-20 assay, Donnelly et al., 1991, above, which is herein incorporated by reference. Specific binding was determined by assaying each fraction without (total binding) and with ([…]) an excess of unlabeled FK-506.
The 58 kDa protein was purified from 1.4×10^10 human T-cells (JURKAT). The S-100 fraction (10 ml) was centrifuged at 2500×g for 1 hour at 4° C. in a 30 kDa Centriprep™ concentrator (Amicon Corp., Danvers, Ma.). The concentrate (1 ml) was diluted with 15 ml of 10 mM phosphate buffer, pH 6.8, and concentrated down to 5 ml. This step removed proteins of less than 30 kDa, i.e., cyclophilin and FKBP, from the S-100 fraction.
[…] FK-506 and CsA drugs was refocused under the same conditions, using only the ampholytes contained in the 2.7 ml fraction (diluted to 55 ml with deionized water). Focusing was complete when a constant voltage of 2200 was reached.
The 20 fractions were assayed for drug binding as above. […] This fraction (3.02 mg in 2.7 ml) was chromatographed in a Bio-Sil-125 HPLC column at a flow rate of 1.0 ml/minute in 10 mM phosphate buffer, pH 6.8. Fractions representing proteins of 50-60 kDa were screened for binding to both FK-506 and CsA.
Binding fractions were probed and chromatographed on a Beckman TSK CM-25W Spherogel column (26×4.6 mm) at a flow rate of 0.5 ml/minute in 10 mM phosphate buffer, pH 6.8. Fractions containing binding activity were probed and used for binding assays.
The binding assay was the LH-20 assay of Example 1.
The LH binding assay was used for generating the competition curve of FIG. 4.

In assay [1] the target is FKBP. Particulars: FKBP isolated from yeast, calf thymus and human T cells (JURKAT); cited from earlier work.
The subject of a further assay is immune responses. To be noted: fold greater than cyclosporine A; cited from earlier work.
The subject of assay [2] is 17 kDa (presumably cyclophilin) and 50 kDa cyclosporine A binding proteins. Description: Binding of 3H-cyclosporine A to HPLC fractions of JURKAT S-100 cytosol (LH-20 assay). Details: species or system human. Particulars: rapamycin at 70 nM; either protein (17 kDa, 50 kDa). From the text:
The experimental conditions of Example 1A were repeated, except that ^3 H-cyclosporine A and unlabeled cyclosporine A were substituted for FK-506.

Assay [3] concerns the target FKBP (Homo sapiens, UniProt P62942). Particulars: cited from earlier work.
The subject of another assay is Candida albicans. Particulars: especially Candida albicans; cited from earlier work.
Assay [4] has as its system experimental immunopathies. Particulars: rats; cited from earlier work.

SMILES strings stand for the structures.

Sequence of FKBP (Homo sapiens, UniProt P62942) (P62942 whole entry): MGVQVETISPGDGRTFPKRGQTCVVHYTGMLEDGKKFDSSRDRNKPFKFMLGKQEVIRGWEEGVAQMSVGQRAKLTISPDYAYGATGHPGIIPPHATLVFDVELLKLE

One may read the Kd as the constant that tells how readily two partners part at equilibrium. As for `C=CC[C@@H]1/C=C(\C)C[C@H](C)C[C@H](OC)[C@H]2O[C@@](O)(C(=O)C(=O)N3CCCC[C@H]3C(=O)O[C@H](/C(C)=C/[C@@H]3CC[C@@H](O)[C@H](OC)C3)[C@H](C)[C@@H](O)CC1=O)[C@H](C)C[C@@H]2OC` [FK-506], the “inhibition of CsA binding” value in the assay on 50-58 kDa protein (50-58 kDa protein) is given as “inhibited by FK-506 in a dose-dependent manner”. Moreover, the Kd at 50-58 kDa protein is 2 nM; at FKBP [1], 0.4 nM. Further, the “potency of inhibiting immune responses relative to cyclosporine A” value in the assay with immune responses is given as 100-500 fold.

For the compound `CO[C@H]1C[C@@H]2CC[C@@H](C)[C@@](O)(O2)C(=O)C(=O)N2CCCC[C@H]2C(=O)O[C@H]([C@H](C)C[C@@H]2CC[C@@H](O)[C@H](OC)C2)CC(=O)[C@H](C)/C=C(\C)[C@@H](O)[C@@H](OC)C(=O)[C@H](C)C[C@H](C)/C=C/C=C/C=C/1C` [RAP, Rapamycin], binding on 50-58 kDa protein was put at a Kd of 0.1 nM. Besides, the “effect on binding of 3H-CsA” value in the assay with 50-58 kDa protein (RAP at 300 nM, purified 58 kDa protein) is listed as “unaffected”. Further, the IC50 at 50-58 kDa protein (inhibition of specific binding of 3H-dihydro FK-506 to purified 58 kDa protein, read-out: B50 value) was determined as 0.1 nM. For the same compound, the “inhibition of specific binding of 3H-dihydro FK-506” value in the assay with 50-58 kDa protein (purified 58 kDa protein, RAP 0.005-500 nM) is reported as “inhibited in a dose-dependent manner”. Moreover, the “effect on binding of cyclosporine A” value in assay [2] is given as “did not affect”. In addition, on FKBP [3], the “inhibition of isomerase activity of FKBP” value is “potent inhibitor”. Further, in the assay on Candida albicans, the “activity against Candida species” value is recorded as “highly active”. The “development of experimental immunopathies and formation of IgE-like antibody” value in assay [4] is given as “totally prevented”.
